The supplement of paper PMC10307832

Tests used:
Test in all cases: relative viability (nuclei count vs DMSO), 5 days (fraction); higher = more cells survive
[1] = compound: CN(C)C(=N)NC(=N)N [Metformin] + CC(=O)Nc1cccc(-n2c(=O)n(C3CC3)c(=O)c3c(Nc4ccc(I)cc4F)n(C)c(=O)c(C)c32)c1 [Trametinib] (partner 0.02 µM)
Procedure, shortened: (§1)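 Five library-drug doses in √10 steps were combined with a fixed anchor-drug dose, or a single drug was given alone, by pin tool to lung cancer cell lines in 1536-well plates the day after seeding. Nuclei were stained and counted after 5 days. Relative viability is the nuclei count in treated wells over that in vehicle wells, taken as the median of duplicate plates.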

[2] = compound: N#CC1(c2ccc(NC(=O)c3cccnc3NCc3ccncc3)cc2)CCCC1 [Apatinib] + CC1(C)CCC(c2ccc(Cl)cc2)=C(CN2CCN(c3ccc(C(=O)NS(=O)(=O)c4ccc(N[C@H](CCN5CCOCC5)CSc5ccccc5)c(S(=O)(=O)C(F)(F)F)c4)cc3)CC2)C1 [Navitoclax] (partner 0.5 µM)
Procedure, shortened: as §1

[3] = compound: CN(C)C(=N)NC(=N)N [Metformin] + N=C(N)NC(=N)NCCc1ccccc1 [Phenformin] (partner 250 µM)
Procedure, shortened: as §1

[4] = compound: CN(C)C(=N)NC(=N)N [Metformin] + Nc1ncn([C@H]2C[C@H](O)[C@@H](CO)O2)c(=O)n1 [Decitabine] (partner 2 µM)
Procedure, shortened: as §1

Cell Line | relative viability ([1]; first compound 10 µM) | relative viability ([1]; first compound 31.62 µM) | relative viability ([1]; first compound 100 µM) | relative viability ([1]; first compound 316.23 µM) | relative viability ([1]; first compound 1000 µM) | relative viability ([2]; first compound 0.08 µM) | relative viability ([2]; first compound 0.253 µM) | relative viability ([2]; first compound 0.8 µM) | relative viability ([2]; first compound 2.53 µM) | relative viability ([2]; first compound 8 µM) | relative viability ([3]; first compound 10 µM) | relative viability ([3]; first compound 31.62 µM) | relative viability ([3]; first compound 100 µM) | relative viability ([3]; first compound 316.23 µM) | relative viability ([3]; first compound 1000 µM) | relative viability ([4]; first compound 10 µM) | relative viability ([4]; first compound 31.62 µM) | relative viability ([4]; first compound 100 µM) | relative viability ([4]; first compound 316.23 µM) | relative viability ([4]; first compound 1000 µM)
NCI-H596 | 0.965 | 0.899 | 1.01 | 0.706 | 0.872 | 1.03 | 1.11 | 0.927 | 0.945 | 0.857 | 0.84 | 0.73 | 0.689 | 0.765 | 0.952 | 1.17 | 1.12 | 1.06 | 1.01 | 1.11
201T |  | 0.679 | 0.735 | 0.684 | 0.681 | 1.2 | 1.24 | 1.19 | 1.27 | 1.18 |  | 0.426 | 0.47 | 0.435 | 0.414 |  | 0.824 | 0.805 | 0.799 | 0.776
HARA | 1.45 | 1.35 | 1.27 | 1.22 | 1.13 | 1.15 | 1.18 | 1.1 | 1.13 | 1.07 |  | 0.459 | 0.518 | 0.493 | 0.591 | 0.722 | 0.498 | 0.581 | 0.621 | 0.68
NCI-H3122 | 0.163 | 0.21 | 0.258 | 0.188 | 0.209 | 1.07 | 0.965 | 1.01 | 1.08 | 1.04 | 0.307 | 0.303 | 0.322 | 0.287 | 0.288 | 0.343 | 0.371 | 0.361 | 0.359 | 0.369
NCI-H1651 | 0.908 | 0.999 | 1.01 | 0.903 | 1 | 1.02 | 1.22 | 0.97 | 0.928 | 0.867 | 0.42 | 0.312 | 0.371 | 0.327 | 0.373 | 0.485 | 0.687 | 0.572 | 0.476 | 0.755
SK-MES-1 | 0.564 | 0.574 | 0.595 | 0.57 | 0.616 | 1.25 | 1.17 | 1.24 | 1.14 | 0.965 | 0.504 | 0.534 | 0.545 | 0.495 | 0.512 | 0.336 | 0.291 | 0.342 | 0.34 | 0.361
NCI-H2085 | 0.541 | 0.58 | 0.446 | 0.542 | 0.631 | 1.18 | 1.23 | 1.18 | 1.05 | 0.949 | 0.693 | 0.729 | 0.722 | 0.673 | 0.864 | 0.498 | 0.453 | 0.484 | 0.531 | 0.524
ChaGo-K-1 | 0.923 | 0.895 | 0.909 | 0.729 | 0.902 |  | 1.4 | 0.971 | 0.888 | 0.993 | 0.539 | 0.498 | 0.488 | 0.489 | 0.557 | 0.524 | 0.535 | 0.512 | 0.481 | 0.509
SK-LU-1 | 0.452 | 0.453 | 0.458 | 0.382 | 0.442 | 0.965 | 1.35 | 0.705 | 0.638 | 0.631 | 0.608 | 0.532 | 0.501 | 0.424 | 0.54 | 0.567 | 0.571 | 0.64 | 0.507 | 0.615
COR-L23 | 0.538 | 0.506 | 0.5 | 0.456 | 0.506 | 1.05 | 1.02 | 0.871 | 0.885 | 0.827 | 0.437 | 0.46 | 0.487 | 0.431 | 0.146 | 0.456 | 0.514 | 0.365 | 0.388 | 0.435
COR-L 105 | 0.428 | 0.479 | 0.511 | 0.454 | 0.489 | 0.665 | 1.03 | 0.695 | 0.841 | 0.636 | 0.727 | 0.61 | 0.65 | 0.568 | 0.494 | 0.588 | 0.64 | 0.695 | 0.719 | 0.697
HCC-44 |  | 1.04 | 1.12 | 0.931 | 0.989 | 0.961 | 1.05 | 0.979 | 0.946 | 0.892 | 0.236 | 0.35 | 0.298 | 0.223 | 0.166 |  | 0.934 | 0.927 | 0.959 | 0.966
PC-3 [JPC-3] | 0.683 | 0.717 |  | 0.706 | 0.68 | 0.785 | 0.764 | 0.746 | 0.816 | 0.737 | 0.437 | 0.46 | 0.462 | 0.45 | 0.478 | 0.786 | 0.848 |  | 0.841 | 0.732
H3255 | 0.587 | 0.789 | 0.648 | 0.57 | 0.508 | 0.512 | 0.62 | 0.34 | 0.52 | 0.607 | 0.395 | 0.365 | 0.436 | 0.338 | 0.382 | 0.531 | 0.665 | 0.596 | 0.61 | 0.624
RERF-LC-KJ | 0.774 | 0.794 | 0.775 | 0.676 | 0.707 | 0.931 | 1.04 | 0.874 | 0.557 | 0.997 | 0.489 | 0.466 | 0.456 | 0.428 | 0.499 | 0.687 | 0.703 | 0.505 | 0.556 | 0.514
NCI-H2347 | 0.291 | 0.289 | 0.26 | 0.265 | 0.258 | 0.783 | 0.698 | 0.948 | 0.728 | 0.74 | 0.384 | 0.363 |  | 0.422 | 0.404 | 0.532 | 0.597 | 0.605 | 0.573 | 0.578
NCI-H520 | 0.798 | 0.622 | 0.739 | 0.505 | 0.762 | 1.21 | 1.14 | 0.982 | 1.02 | 0.857 | 1.08 | 0.892 | 0.603 | 0.658 | 0.78 | 0.463 | 0.447 | 0.461 | 0.423 | 0.485
NCI-H1395 | 0.945 | 1.05 | 0.896 | 0.974 | 0.756 | 1.1 | 1.13 | 1.09 | 1.02 | 0.957 | 0.448 | 0.429 | 0.525 | 0.423 | 0.467 | 0.661 | 0.758 | 0.719 | 0.713 | 0.382
LK-2 | 0.829 | 1.23 | 1.54 | 1.08 | 1.26 | 0.879 | 0.857 | 0.885 | 0.769 | 0.634 | 0.758 | 0.636 | 0.374 | 0.381 | 0.667 | 0.298 | 0.398 | 0.33 | 0.294 | 0.444
PC-14 | 0.746 | 0.666 | 0.767 | 0.686 | 0.575 | 1.04 | 0.968 | 0.967 | 0.986 | 0.937 | 0.72 | 0.808 | 0.77 | 0.659 | 0.697 | 0.27 | 0.291 | 0.186 | 0.211 | 0.235
NCI-H2023 | 0.5 | 0.563 | 0.516 | 0.415 | 0.467 | 0.988 | 1.01 | 0.954 | 0.925 | 0.895 | 0.396 | 0.376 | 0.408 | 0.393 | 0.354 | 0.224 | 0.223 | 0.203 | 0.207 | 0.186
NCI-H838 | 0.557 | 0.572 | 0.541 | 0.525 | 0.579 | 1.25 | 1.27 | 1.09 | 1.12 | 1.05 | 0.709 | 0.671 | 0.661 | 0.667 | 0.749 | 0.478 | 0.465 | 0.482 | 0.396 | 0.459
EKVX |  | 0.196 | 0.354 | 0.265 | 0.334 | 0.882 | 0.946 | 0.98 | 0.888 | 0.826 | 0.23 | 0.253 | 0.239 |  | 0.189 |  | 0.302 | 0.369 | 0.325 | 0.322
NCI-H1944 | 0.37 | 0.412 | 0.38 | 0.365 | 0.415 | 1.04 | 1.06 | 0.976 | 0.974 | 0.965 | 0.205 | 0.2 | 0.19 | 0.169 | 0.209 | 0.361 | 0.381 | 0.437 | 0.401 | 0.453
EPLC-272H | 0.341 | 0.316 | 0.291 | 0.311 | 0.337 | 1.06 | 1.05 | 0.961 | 1.04 | 0.731 | 0.333 | 0.369 | 0.381 | 0.262 | 0.304 | 0.383 | 0.415 | 0.426 | 0.38 | 0.507
NCI-H1666 | 0.687 | 0.676 | 0.759 | 0.771 | 0.941 | 1.02 | 0.963 | 1.07 | 0.815 | 1.04 |  | 0.575 | 0.569 | 0.499 | 0.58 | 0.66 | 0.713 | 0.649 | 0.619 | 0.823
NCI-H322M | 0.518 | 0.487 | 0.506 | 0.561 | 0.529 | 1.28 | 1.11 | 1.25 | 1.32 | 1.12 | 0.839 | 0.802 | 0.809 | 0.735 | 0.746 | 0.698 | 0.673 | 0.718 | 0.675 | 0.746
